This assay deals with Neprilysin (Homo sapiens, UniProt P08473). Put plainly: Compound was evaluated for inhibition of enkephalin degrading enzyme, neutral endopeptidase (NEP).

The record followed here is ChEMBL document CHEMBL1134632, “Long lasting antinociceptive properties of enkephalin degrading enzyme (NEP and APN) inhibitor prodrugs” (J Med Chem, 2001).

Chain of Neprilysin (P08473 whole entry): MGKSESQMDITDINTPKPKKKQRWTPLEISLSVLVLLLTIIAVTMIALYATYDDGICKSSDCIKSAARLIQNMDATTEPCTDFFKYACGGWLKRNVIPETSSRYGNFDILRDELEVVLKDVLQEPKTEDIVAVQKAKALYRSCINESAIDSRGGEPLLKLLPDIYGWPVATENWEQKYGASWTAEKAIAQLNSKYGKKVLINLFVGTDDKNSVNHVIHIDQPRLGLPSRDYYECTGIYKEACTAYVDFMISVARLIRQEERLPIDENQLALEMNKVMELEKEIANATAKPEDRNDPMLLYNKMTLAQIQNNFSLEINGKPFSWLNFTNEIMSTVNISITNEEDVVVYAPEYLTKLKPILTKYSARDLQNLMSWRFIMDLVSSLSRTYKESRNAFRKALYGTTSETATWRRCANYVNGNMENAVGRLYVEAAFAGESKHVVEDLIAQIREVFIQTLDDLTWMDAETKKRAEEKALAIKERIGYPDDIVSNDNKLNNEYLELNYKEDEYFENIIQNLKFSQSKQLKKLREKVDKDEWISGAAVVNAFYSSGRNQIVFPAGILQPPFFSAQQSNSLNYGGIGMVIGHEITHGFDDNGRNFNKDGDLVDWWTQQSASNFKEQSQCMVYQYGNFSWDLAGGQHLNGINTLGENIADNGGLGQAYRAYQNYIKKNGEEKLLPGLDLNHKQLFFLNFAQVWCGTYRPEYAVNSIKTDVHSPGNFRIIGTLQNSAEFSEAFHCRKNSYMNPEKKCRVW

For orientation: Ki means the equilibrium dissociation constant of an inhibitor or competing ligand from its target. In turn, `CSCC[C@H](N)CSSC[C@@H](Cc1ccccc1)C(=O)NC(Cc1ccccc1)C(=O)OCc1ccccc1` (stereo partly specified) had a Ki of 2 nM.
